Earlier results as cited in patent US11591601B2, “Methods for identification and modification of lncRNA associated with target genotypes and phenotypes” (The Broad Institute, Inc., priority 2017, dated 2023).

System: Factor VII
Conditions: hepatocytes in vivo, Factor VII gene silencing model

Compound	gene silencing potency series of LNP siRNA systems containing the lipid
CCCCC/C=C\C/C=C\CCCCCCCCOCC(CN(C)C)OCCCCCCCC/C=C\C/C=C\CCCCC (stereo not shown) [DLinDMA, 1,2-dilinoleyloxy-3-N,N-dimethylaminopropane]	DLinKC2-DMA>DLinKDMA>DLinDMA>>DLinDAP
CCCCC/C=C\C/C=C\CCCCCCCCC1(CCCCCCCC/C=C\C/C=C\CCCCC)OCC(CCN(C)C)O1 (stereo not shown) [DLinKC2-DMA, 1,2-dilinoleyl-4-(2-dimethylaminoethyl)[1,3]-dioxolane]	DLinKC2-DMA>DLinKDMA>DLinDMA>>DLinDAP
1,2-dilinoleyloxy-keto-N,N-dimethyl-3-aminopropane [DLinKDMA]	DLinKC2-DMA>DLinKDMA>DLinDMA>>DLinDAP
CCCCC/C=C\C/C=C\CCCCCCCC(=O)OCC(CN(C)C)OC(=O)CCCCCCC/C=C\C/C=C\CCCCC (stereo not shown) [DLinDAP, 1,2-dilineoyl-3-dimethylammonium-propane]	DLinKC2-DMA>DLinKDMA>DLinDMA>>DLinDAP
